This is an account of results in PubChem BioAssay (NCI).

Molecules are shown by their SMILES.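 All cell lines were grown in 96-well plates and treated with compound for 48 hours. GI50 is the concentration that inhibits growth by half. At the TGI there is no net growth.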

Some test systems named below: EKVX NSCLC; NCI/ADR-RES ovarian; NCI-H522 lung; OVCAR-3 ovarian; RPMI-8226 leukemia; HCT-116 colon; SK-MEL-5 melanoma; IGROV1 ovarian; RXF 393 renal; SW-620 colon.
Common to all, as to assay: inhibition of tumour cell growth, NCI panel, 48 h

As for `Cc1cc(I)cc(CN(C)CCCN2CCC(C)CC2)c1O`, the GI50 is 14.2 µM in the assay on EKVX NSCLC; 14.3 µM in the assay with NCI/ADR-RES ovarian; 16.4 µM in the assay on NCI-H522 lung; 13.7 µM with OVCAR-3 ovarian; 12.6 µM with RPMI-8226 leukemia; 10.4 µM in the assay with HCT-116 colon. Further, the GI50 is 4.98 µM with SK-MEL-5 melanoma, 13.6 µM in the assay with IGROV1 ovarian, 10.5 µM in the assay with RXF 393 renal and 13.6 µM with SW-620 colon. The TGI in the assay with EKVX NSCLC worked out at 31 µM; in the assay with NCI/ADR-RES ovarian it was 31 µM; in the assay with NCI-H522 lung, 32.2 µM; with OVCAR-3 ovarian it was 28.1 µM; in the assay with RPMI-8226 leukemia, 32 µM; in the assay on HCT-116 colon it was 22.1 µM. Further, the TGI stood at 17.2 µM in the assay with SK-MEL-5 melanoma, 29.1 µM in the assay with IGROV1 ovarian, 23.5 µM with RXF 393 renal and 26.6 µM with SW-620 colon.

For `COc1ccc(C(=O)/C=C/c2ccc(OCc3cccc(C(F)(F)F)c3)c(OC)c2)cc1OC`, the GI50 in the assay with EKVX NSCLC was 45.8 µM; with NCI/ADR-RES ovarian, 42.1 µM; in the assay on NCI-H522 lung, 39.2 µM; in the assay on OVCAR-3 ovarian, 48.4 µM; with RPMI-8226 leukemia, 25.3 µM; in the assay on HCT-116 colon it was 34.9 µM. Moreover, the GI50 in the assay on SK-MEL-5 melanoma was 38.4 µM; in the assay with IGROV1 ovarian it was 60.2 µM; in the assay with RXF 393 renal, 68.3 µM; in the assay on SW-620 colon, 49.7 µM. In addition, the TGI is over 1000 µM in the assay on EKVX NSCLC; over 1000 µM with NCI/ADR-RES ovarian; over 1000 µM in the assay on NCI-H522 lung; over 1000 µM in the assay with OVCAR-3 ovarian; 94 µM in the assay on RPMI-8226 leukemia; over 1000 µM with HCT-116 colon. In addition, the TGI is 301 µM in the assay on SK-MEL-5 melanoma, over 1000 µM with IGROV1 ovarian, 562 µM in the assay on RXF 393 renal and over 1000 µM in the assay with SW-620 colon.

In the case of `COc1cccc(N2CC(O)=C(c3nc4ccccc4s3)C2=N)c1`, the GI50 is 9.24 µM in the assay on EKVX NSCLC; 0.286 µM in the assay on NCI/ADR-RES ovarian; 0.0588 µM in the assay with NCI-H522 lung; 0.269 µM in the assay with OVCAR-3 ovarian; 0.35 µM with HCT-116 colon; 0.211 µM in the assay with SK-MEL-5 melanoma. Moreover, the GI50 in the assay with IGROV1 ovarian was 0.277 µM; in the assay with RXF 393 renal, 0.488 µM; with SW-620 colon, 0.341 µM. The TGI was over 100 µM in the assay with EKVX NSCLC; over 23.2 µM with NCI/ADR-RES ovarian; 0.82 µM with OVCAR-3 ovarian; over 100 µM with RPMI-8226 leukemia; over 47.2 µM with HCT-116 colon; 23 µM in the assay on SK-MEL-5 melanoma. The TGI with IGROV1 ovarian is over 75.6 µM; with RXF 393 renal, 45.1 µM; in the assay with SW-620 colon, over 100 µM.

In the case of `Cn1nc(C(F)(F)F)cc1-c1cc(Cl)c(OCc2ccc(Cl)cc2)c(-c2ccc(Cl)c(C(F)(F)F)c2)c1O`, the GI50 in the assay on EKVX NSCLC is 1.21 µM; in the assay on NCI/ADR-RES ovarian, 1.35 µM; with NCI-H522 lung, 0.731 µM; with OVCAR-3 ovarian it was 1.13 µM; in the assay on RPMI-8226 leukemia, 0.712 µM; in the assay with HCT-116 colon it was 0.691 µM. In addition, the GI50 with SK-MEL-5 melanoma is 0.777 µM; in the assay on IGROV1 ovarian, 1.56 µM; in the assay on RXF 393 renal it was 1.01 µM; with SW-620 colon it was 1.38 µM. Also, the TGI in the assay on EKVX NSCLC turned out to be 5.41 µM; with NCI/ADR-RES ovarian, 5.33 µM; in the assay on NCI-H522 lung, 5.09 µM; with OVCAR-3 ovarian it was 6.12 µM; in the assay with RPMI-8226 leukemia, 2.55 µM; in the assay with HCT-116 colon, 1.86 µM. Also, the TGI stood at 1.74 µM in the assay on SK-MEL-5 melanoma, 6.42 µM in the assay with IGROV1 ovarian, 3.11 µM in the assay with RXF 393 renal and 5.38 µM in the assay on SW-620 colon.

Take `COc1cc(OC)c(/C=C/C(=O)c2c(OC)cc(OC)cc2OC)c(OC)c1`: the GI50 in the assay with EKVX NSCLC is 3.61 µM; with NCI/ADR-RES ovarian, 0.469 µM; in the assay on NCI-H522 lung, 0.515 µM; with OVCAR-3 ovarian, 0.233 µM; in the assay on RPMI-8226 leukemia it was 0.566 µM; with HCT-116 colon, 0.6 µM. Besides, the GI50 in the assay with SK-MEL-5 melanoma is 0.818 µM; in the assay on IGROV1 ovarian it was 0.577 µM; in the assay on RXF 393 renal it was 1.3 µM; in the assay on SW-620 colon, 0.417 µM. Also, the TGI in the assay with EKVX NSCLC is over 100 µM; with NCI/ADR-RES ovarian, 10 µM; in the assay with NCI-H522 lung it was 4.18 µM; in the assay with OVCAR-3 ovarian, 0.8 µM; with RPMI-8226 leukemia, 3.03 µM; with HCT-116 colon, 10.2 µM. In addition, the TGI is 11.2 µM in the assay on SK-MEL-5 melanoma, 25.2 µM in the assay on IGROV1 ovarian, 4.99 µM in the assay on RXF 393 renal and 2.91 µM in the assay with SW-620 colon.

`Nc1ccc(C#Cc2ccccc2C#CCCCCO)cc1`: the GI50 with EKVX NSCLC is 18.9 µM; with NCI/ADR-RES ovarian, 18.9 µM; in the assay on NCI-H522 lung, 15.7 µM; with OVCAR-3 ovarian, 23 µM; in the assay with RPMI-8226 leukemia, 18.1 µM; in the assay on HCT-116 colon, 14.3 µM. Also, the GI50 in the assay with SK-MEL-5 melanoma was 19.8 µM; in the assay with IGROV1 ovarian, 16.1 µM; in the assay on RXF 393 renal it was 4.69 µM; in the assay on SW-620 colon it was 17.6 µM. The TGI came to 37.8 µM in the assay on EKVX NSCLC; 40.4 µM in the assay on NCI/ADR-RES ovarian; 29.5 µM in the assay on NCI-H522 lung; 47.2 µM in the assay on OVCAR-3 ovarian; 44.2 µM in the assay on RPMI-8226 leukemia; 28.2 µM in the assay on HCT-116 colon. In addition, the TGI was 38.6 µM with SK-MEL-5 melanoma, 30.2 µM with IGROV1 ovarian, 20.5 µM with RXF 393 renal and 33.1 µM in the assay with SW-620 colon.
